Assay results: a melting point compilation (Tetko et al.; mined from patent text by program, amines drawn as free bases though some values may be those of a salt)

Row | SMILES | melting point [°C]
1 | Nc1nc(=O)n(C2CC(O)C(CNC(=O)Cc3ccccc3Br)O2)cc1Br (centres undefined) | 164 to 167
2 | CC1(C)CN(C2CCN(c3cc(Cl)cc(Cl)c3)C2=O)C1=O (centres undefined) | 185 to 186
3 | CCOC(=O)N1CC=C(c2cc(F)c(Br)cc2F)CC1 | 40 to 44
4 | CCOC(=O)c1c(CC(=O)O)n(-c2ccc(OC(F)(F)F)cc2)c2ccc(Oc3ccc(CCl)cn3)cc12 | 168 to 170
5 | O=C(Nc1ccc(-c2ccc(C(=O)N3CCN4CCC3CC4)o2)cc1)c1ccccc1 | 254
6 | CCOC(=O)c1ccc(CNC(N)=O)cc1 | 173 to 175
7 | Cc1nn(C)c(C)c1N=C=S | 51
8 | COc1ccc(C=N[C@H]2COc3c(F)ccc(OC)c3C2)cc1 | 96.8 to 97.3
9 | C(=Cc1ccc(OCCCCc2nnn[nH]2)cc1)c1ccncc1 | 158 to 159
10 | O=S(=O)(Nc1ccc2c(OCc3csc(-c4ccccc4Cl)n3)cccc2c1)C(F)(F)F | 128 to 129
11 | CCn1c2ccccc2c2c3c(c(-c4ccccc4Cl)cc21)C(O)NC3=O (centres undefined) | 232 to 236
12 | N#Cc1c(N2CCCCC2)cc(-c2ccc(F)cc2)c2c1-c1ccccc1C2=O | 180 to 182
13 | CCC(=NNC(=O)c1ccccc1)c1cccnc1 | 169
14 | O=C(Oc1ccccc1)N1CCC2(CC1)SC(c1ccc(Cl)c(Cl)c1)c1ccccc12 (centres undefined) | 200 to 202
15 | CNc1cccc(C2C(C(=O)OC)=C(C)NC(C)=C2C(=O)OC)c1 | 182 to 184
16 | N#CCCn1cccc1C1=CC(=O)c2ncccc2C1=O | 166 to 167
17 | Fc1ccc(-c2cnn3cnnc3n2)cc1 | > 300
18 | CSC(SC)=C(C#N)S(=O)(=O)c1ccccc1 | 99 to 101
19 | CCOC(=O)c1c(N2CCNCC2)c2cc(C)ccc2n(-c2ccccc2)c1=O | 181
20 | CCOC(=O)CC[C@H](NC(=O)c1ccc(I)cc1)C(=O)OCC | 105 to 106
21 | Cc1c(NC(=O)c2ccc(OCC3CC3)cc2)ccc2cc(CN3CCCC3)cnc12 | 168
22 | O=C(NCc1ccccc1)c1cn2c(=O)n(Cc3ccc(Cl)c(Cl)c3)c(=O)cc2s1 | 216 to 217
23 | CCCCCc1ccc(-c2ccc(-c3c(C(=O)OC)c4c(c5ccccc35)OC(c3ccccc3)(c3ccc(N(CC)CC)cc3)C=C4)cc2)cc1 (centres undefined) | 177 to 178
24 | Cc1c(C)c(N2Cc3cc4c(cc3C2)OCO4)c(C)c2c1OC(C)(C)C2c1ccccc1 (centres undefined) | 245 to 248
25 | C#CCOc1nc(-n2nc3ccc(Cl)cn3c2=O)c(F)cc1C#N | 207 to 209

Row | SMILES | melting point [°C]
26 | CC(C)Cn1cnc2c(N)nc3ccc(CCO)cc3c21 | 214 to 216
27 | O=C(O)c1cc(CBr)on1 | 143 to 148
28 | Cc1nc(N)c(N)cc1Cl | 128 to 130
29 | COc1ccc(S(=O)(=O)Nc2nc(-c3cccc([N+](=O)[O-])c3)cs2)cc1 | 157 to 159
30 | CC(Cl)(Cl)C(NC(=O)c1cccc(Cl)c1)NC(=NC#N)Nc1cccnc1 (centres undefined) | 142 to 143
31 | C#Cc1ccc2c(c1)[C@@H](N)[C@H](O)CO2 (relative stereo) | 132 to 134
32 | CCc1cccc2c1[nH]c1c2ccc2c(C=O)c[nH]c21 | > 250
33 | CCOC(C)O[C@H]1C(=O)N(C(=O)OC(C)(C)C)[C@H]1C=Cc1ccccc1 (some centres undefined) | 69 to 73
34 | CCCC(NS(N)(=O)=O)C(=O)OC (centres undefined) | 63 to 64
35 | O=c1[nH]c2ccc(Cl)cc2n1CC1CCCCC1 | 62
36 | Cn1cc(-c2ccccc2)c(=O)c(-c2cc(Cl)cc(Cl)c2)c1 | 131 to 135
37 | CCOC(=O)C(Cc1ccccc1)NC(=O)COc1ccc(C2=NNC(=O)NC2)cc1C (centres undefined) | 148 to 150
38 | CN1C(=N)C(=O)c2ccccc21 | 99 to 102
39 | O=C(O)c1c(O)ccc2ccccc12 | 218
40 | CC1C(c2ccccc2)OC(C)(C)N1C(=O)C(Cl)Cl (centres undefined) | 126
41 | COc1cc2c(cc1Nc1ncc(Cl)c(N[C@@H]3CCCC[C@H]3NS(C)(=O)=O)n1)CCNC(=O)C2 | 109 to 115
42 | CCOC(=O)c1ccc(-c2nc(COc3ccc(COc4nn(-c5ccccc5)cc4/C=C\c4csc(CC)n4)cc3OC)c(C)o2)s1 | 118 to 119
43 | Nc1ccc(SCC2CCCCC2)cc1[N+](=O)[O-] | 80 to 82
44 | CCOC(=O)c1c(C(=O)OCC)c(-c2ccc(OC)c(OC)c2)c2c(OC)c(OC)c(OC)cc2c1O | 138 to 140
45 | COc1cc2ncc(C#N)c(Nc3ccc(Cl)cc3F)c2cc1OC | 139 to 141
46 | O=C1CCCCC1c1cccnc1 (centres undefined) | 78 to 80
47 | C=CCc1c(O)c(=O)[nH]c2cc(Cl)ccc2c1=O | 172 to 174
48 | Cc1c(F)c(F)cc2c1c(=O)c(C(=O)O)cn2-c1cc(N)c(F)cc1F | > 270
49 | CCc1nnc(-c2cccc([N+](=O)[O-])c2)n1-c1ccc(OC)cc1 | 126
50 | COC(=O)c1cc(OCCCCCCCCCCCCOc2ccccc2)ccc1O | 61 to 64

Row | SMILES | melting point [°C]
51 | CN1CCSC1=NC(=Nc1ccc(Cl)cc1)N1CCCC1 | 124 to 127
52 | CONC(=O)NC1CCCc2sccc21 (centres undefined) | 138
53 | CN1CCC=C(c2nnn(C)n2)C1 | 86 to 87
54 | COc1cc(OC)nc(-c2ccc(C)cc2)n1 | 61 to 62
55 | O=C(C1CC1)N1CC2CC2(c2ccccc2)C1 (centres undefined) | 164 to 165
56 | COC(=O)CCC(=O)Nc1cccc(COc2ccc(C(C)=O)c(O)c2)c1 | 121 to 123
57 | CCC(CC)Oc1nc(C)nc2c1[nH]c(=O)n2-c1c(C)cc(C)cc1C | 159 to 160
58 | CNC(=O)Nc1cccc(-c2noc(C(F)(F)F)n2)c1 | 141 to 143
59 | Nc1c(Cl)cc(C(=O)OCC2CCN(CCCn3nc(Cl)ccc3=O)CC2)c2c1CCO2 | 137
60 | COCC(=O)N[C@H]1CC[C@H](CCN2CCC(c3cccc4c3CCO4)CC2)CC1 | 156
61 | Cc1cc(OC/C=C/c2ccccc2)c(C)c(C)c1NC=O | 197 to 199
62 | COC(=O)C1CCC(C)(C(=O)c2ccc(OC)cc2OC)C1(C)C (centres undefined) | 108
63 | COc1ccccc1N1CCN(C(=O)CCCN2CC=C(c3c[nH]c4cc(F)ccc34)CC2)CC1 | 118 to 120
64 | CCC1(C)C(=CC=C2C(=O)c3ccccc3C2=C(C#N)C#N)N2CCc3cccc1c32 (centres undefined) | 230
65 | CCCCCCCCCCCCCCCCCNC(=O)OCCOCCOC(=O)N(Cc1ccccn1)C(C)=O | 60 to 61
66 | CC(C)C[C@H](NC1CCCCC1)C(=O)N1CCN(C(c2ccc(F)cc2)c2ccc(F)cc2)CC1 | 45 to 54
67 | CSC(c1ccc(Cl)cc1)C(C(=O)C(C)(C)C)n1cncn1 (centres undefined) | 145
68 | CC(=O)NCC1CNC(=O)O1 (centres undefined) | 138
69 | O=C(O)CCc1cn(Cc2ccc(OCc3csc(-c4ccco4)n3)cc2)cc1-c1ccccc1 | 114 to 115
70 | CCOC(=O)CCn1c(=O)c(=O)[nH]c2cc(C(F)(F)F)c(N)cc21 | 262 to 263
71 | CCCCC(Cc1cccnc1)(C(=O)OC(C)(C)C)S(=O)(=O)c1ccc(OC)cc1 (centres undefined) | 10
72 | Cc1cc(Nc2ccnc(Nc3ccc(S(=O)(=O)N(C)C4CCN(Cc5csnn5)CC4)cc3)n2)ccc1F | 168
73 | C#Cc1cn(C2CC(O)C(COC(c3ccccc3)(c3ccccc3)c3ccccc3)O2)c(=O)[nH]c1=O (centres undefined) | 110
74 | Cc1c(-c2ccc(OC(C)C)cc2)n(Cc2ccc(OCCN3CCCCC3)cc2)c2ccc(O)cc12 | 120 to 125
75 | Cc1ccc(S(=O)(=O)Nc2ccccc2C#N)cc1 | 134 to 136

Row | SMILES | melting point [°C]
76 | O=C(NC1CCCCC1)C1=C(c2ccccc2)C(c2ccccc2)OC1=O (centres undefined) | 151 to 153
77 | CCC(C)(Oc1ccc(CNc2ccc(Cl)cc2)cc1)C(=O)O (centres undefined) | 152 to 153
78 | CNC(=S)NCCCSCc1c[nH]cn1 | 118 to 120
79 | CC1(C)CC(OC(=O)CCc2cc(-n3nc4ccc(S(=O)(=O)c5ccccc5)cc4n3)c(O)c(C(C)(C)C)c2)CC(C)(C)N1 | 85 to 125
80 | CC1=C(C(=O)OC(C)C)C(c2cccc([N+](=O)[O-])c2)n2c(cc(=O)n2S(=O)(=O)c2ccccc2)N1 (centres undefined) | 187 to 188
81 | COc1cccc(CC(=O)O)c1OCc1cc(OCc2ccc3ccccc3n2)nn1C(C)C | 163 to 164
82 | C=C(C#N)CCC(=O)O | 26.5 to 27
83 | COC(=O)c1c(/C=C/c2ccccc2)ccc2ccccc12 | 68 to 71
84 | CCc1cccc2c(C(=O)c3cccc(Cl)c3Cl)c(C)n(CCCS(=O)(=O)N(C)C)c12 | 18
85 | COc1ccc2c(c1)CC(N(C)CCCNC(=O)Cc1cc(OC)c(OC)cc1[N+](=O)[O-])CC2 (centres undefined) | 116 to 118
86 | COc1ccc(F)c(CC2CCN([C@H]3CC[C@H](c4ccc5c(c4)OCO5)CC3)CC2)c1 | 89 to 91
87 | CCOc1ccc2c(c1)n(C1CCOCC1)c(=O)n2Cc1ccc(C(=O)NC(C)(C)C)cc1OC | 209
88 | CCCn1nc(-c2ccc(OC(=O)CC(C)(C)C)cc2)c2cccc(Cl)c21 | 71 to 72
89 | COC(=O)C(=O)c1ccc(OCCOc2ccc3cc4ccccc4cc3c2)cc1 | 188 to 189
90 | NC(=O)c1cc(-c2nccs2)[nH]c1C(CC1CCOCC1)c1ccc(S(=O)(=O)C2CC2)cc1 (centres undefined) | 241 to 243
91 | CC1(S(=O)(=O)c2ccccc2)CCc2nc(-c3ccccc3)[nH]c(=O)c2C1 (centres undefined) | > 250
92 | CC(C)(C)OC(=O)N1CCC(c2nc3cc(-c4ccc(-n5cnnn5)cc4F)ccc3o2)CC1 | 203 to 207
93 | N#CCc1ccc(F)cc1I | 52 to 53
94 | CC1(C)OC(=O)C(Br)(CCn2cccc2C(=O)c2ccccc2)C(=O)O1 | 89 to 91
95 | O=C(O)c1cn(C2CC2)c2cc(N3CCNC(c4ccco4)C3)c(F)cc2c1=O (centres undefined) | 176
96 | O=C(O)CCCc1c([N+](=O)[O-])cc(O)c(O)c1[N+](=O)[O-] | 165 to 170
97 | CCn1ncc2c(Cl)c(CO)cnc21 | 56
98 | CC(C)(C)c1ccc2c(c1O)C(=O)c1c(O)cccc1C2 | 126 to 127
99 | CCCc1nc2ncnn2c(N)c1CCc1ccccc1 | 190 to 191
